Laboratory results published in US20230398130A1, “METHODS AND COMPOSITIONS FOR DIFFERENTIATING STEM CELLS” (Massachusetts Institute of Technology, priority 2020, published 2023).
Structures can show the parent of a compound that is named as a salt.

Columns and labels:
ISC-enriched organoids [1] = experiment: Primary screen, 384-well 2.5-D organoid differentiation (ENR+CD, 6 days, Target Selective Inhibitor Library, vs whole-plate median): ATP (CellTiter-Glo 3D, CTG); settings: for Z.CTG: standard z score of FC
ISC-enriched organoids [2] = experiment: Secondary (validation) screen, 384-well 2.5-D, ENR+CD 6 days, n=8 wells, vs ENR+CD+DMSO control: carbachol-induced lysozyme secretion (LYZ.S); type: cell-based, murine
Procedure: (§1) Drugs were tested at a narrowed dose range around each treatment's identified optimal dose from the primary screen (4× below, 2× above and below).
(§2) High-throughput screening.
(§3) Secondary lysozyme secretion assay screen. Confirmatory secondary screening with primary hits was performed using the above 384-well plate method. The screen was conducted with 4-plate replicates with a base media of ENR+CD. Media was supplemented with compound at day 0 and day 3 (n=8 well replicates per dose) at four different doses: two-fold above, two-fold below, and four-fold below the optimal final dose for each respective treatment. Additionally, each plate carried a large number of ENR+DMSO or ENR+CD+DMSO (vehicle) control wells (n=100 for ATP, and n=25 for LYZ.NS and LYZ.S) for robust normalization. ATP, non-stimulated lysozyme activity and CCh-stimulated lysozyme activity was again measured and the collected data was again processed in a custom R-script, per primary screen with slight modification. Values were log10 transformed, and a plate-wise FC was calculated for each well based on the median value of ENR+CD+DMSO (vehicle) control wells to normalize plate to plate variability.

ISC-enriched organoids [3] = experiment: Secondary (validation) screen, 384-well 2.5-D, ENR+CD 6 days, n=8 wells, vs ENR+CD+DMSO control: ATP (CTG); type: cell-based, murine
Procedure: as §1, §2, §3

ISC-enriched organoids [4] = experiment: Secondary (validation) screen, 384-well 2.5-D, ENR+CD 6 days, n=8 wells, vs ENR+CD+DMSO control: basal lysozyme secretion (LYZ.NS); type: cell-based, murine
Procedure: as §1, §2, §3

**Q.** What does the source list for `C[C@H](NCc1ccc(OCc2cccc(F)c2)cc1)C(N)=O` [Safinamide Mesylate]?
**A.** Z.CTG (standard z score) (ISC-enriched organoids [1]; Dose 0.08 uM, primary screen): 0.633; Z.CTG (standard z score) (ISC-enriched organoids [1]; Dose 0.40 uM, primary screen): 0.575; Z.CTG (standard z score) (ISC-enriched organoids [1]; Dose 2.00 uM, primary screen): 0.627; Z.CTG (standard z score) (ISC-enriched organoids [1]; Dose 10.00 uM, primary screen): 0.883; Z.LYZ.S (ISC-enriched organoids [2]; Dose 0.50 uM): −1.637; repSSMD.LYZ.S (ISC-enriched organoids [2]; Dose 0.50 uM): −2.413; Z.LYZ.S (ISC-enriched organoids [2]; Dose 1.00 uM): −2.259; repSSMD.LYZ.S (ISC-enriched organoids [2]; Dose 1.00 uM): −3.571; Z.LYZ.S (ISC-enriched organoids [2]; Dose 4.00 uM): −0.658; repSSMD.LYZ.S (ISC-enriched organoids [2]; Dose 4.00 uM): −0.942; Z.LYZ.S (ISC-enriched organoids [2]; dose 2.00 uM): −0.757; repSSMD.LYZ.S (ISC-enriched organoids [2]; dose 2.00 uM): −1.243; Z.CTG (ISC-enriched organoids [3]; Dose 0.50 uM): −0.127; repSSMD.CTG (ISC-enriched organoids [3]; Dose 0.50 uM): −0.118; Z.CTG (ISC-enriched organoids [3]; Dose 1.00 uM): −0.743; repSSMD.CTG (ISC-enriched organoids [3]; Dose 1.00 uM): −0.547; Z.CTG (ISC-enriched organoids [3]; Dose 4.00 uM): −0.022; repSSMD.CTG (ISC-enriched organoids [3]; Dose 4.00 uM): −0.013; Z.CTG (ISC-enriched organoids [3]; dose 2.00 uM): −0.098; repSSMD.CTG (ISC-enriched organoids [3]; dose 2.00 uM): −0.060; Z.LYZ.NS (ISC-enriched organoids [4]; Dose 0.50 uM): −1.244; repSSMD.LYZ.NS (ISC-enriched organoids [4]; Dose 0.50 uM): −1.484; Z.LYZ.NS (ISC-enriched organoids [4]; Dose 1.00 uM): −1.847; repSSMD.LYZ.NS (ISC-enriched organoids [4]; Dose 1.00 uM): −2.985; Z.LYZ.NS (ISC-enriched organoids [4]; Dose 4.00 uM): −0.272; repSSMD.LYZ.NS (ISC-enriched organoids [4]; Dose 4.00 uM): −0.431; Z.LYZ.NS (ISC-enriched organoids [4]; dose 2.00 uM): −0.368; repSSMD.LYZ.NS (ISC-enriched organoids [4]; dose 2.00 uM): −0.556

**Q.** With `CCOc1ccc(Cc2cc([C@@H]3O[C@H](CO)[C@@H](O)[C@H](O)[C@H]3O)ccc2Cl)cc1` [Dapagliflozin] as the compound, how does the Z.CTG (ISC-enriched organoids [1]; Dose 0.08 uM) read?
**A.** The Z.CTG was 0.980.

**Q.** And the Z.CTG (ISC-enriched organoids [1]; Dose 0.40 uM)?
**A.** The Z.CTG was 0.607.

**Q.** And the Z.CTG (ISC-enriched organoids [1]; Dose 2.00 uM)?
**A.** The Z.CTG was 0.699.

**Q.** And the Z.CTG (ISC-enriched organoids [1]; Dose 10.00 uM)?
**A.** Its Z.CTG is 0.719.

**Q.** What about the Z.LYZ.S (ISC-enriched organoids [2]; Dose 0.02 uM) of the same compound?
**A.** Its Z.LYZ.S is −0.144.

**Q.** And the repSSMD.LYZ.S (ISC-enriched organoids [2]; Dose 0.02 uM)?
**A.** Its repSSMD.LYZ.S is −0.225.

**Q.** And the Z.LYZ.S (ISC-enriched organoids [2]; Dose 0.04 uM)?
**A.** Its Z.LYZ.S is 0.528.

**Q.** What about the repSSMD.LYZ.S (ISC-enriched organoids [2]; Dose 0.04 uM) of the same compound?
**A.** Its repSSMD.LYZ.S is 0.751.

**Q.** What about the Z.LYZ.S (ISC-enriched organoids [2]; dose 0.08 uM) of the same compound?
**A.** Its Z.LYZ.S is 0.530.

**Q.** And the repSSMD.LYZ.S (ISC-enriched organoids [2]; dose 0.08 uM)?
**A.** The repSSMD.LYZ.S was 0.879.

**Q.** And the Z.CTG (ISC-enriched organoids [3]; Dose 0.02 uM)?
**A.** The Z.CTG was 0.770.

**Q.** And the repSSMD.CTG (ISC-enriched organoids [3]; Dose 0.02 uM)?
**A.** Its repSSMD.CTG is 0.643.

**Q.** What about the Z.CTG (ISC-enriched organoids [3]; Dose 0.04 uM) of the same compound?
**A.** The Z.CTG was 1.569.

**Q.** And the repSSMD.CTG (ISC-enriched organoids [3]; Dose 0.04 uM)?
**A.** Its repSSMD.CTG is 0.979.

**Q.** What about the Z.CTG (ISC-enriched organoids [3]; dose 0.08 uM) of the same compound?
**A.** The Z.CTG was 1.346.

**Q.** What about the repSSMD.CTG (ISC-enriched organoids [3]; dose 0.08 uM) of the same compound?
**A.** Its repSSMD.CTG is 0.777.

**Q.** And the Z.LYZ.NS (ISC-enriched organoids [4]; Dose 0.02 uM)?
**A.** Its Z.LYZ.NS is 0.173.

**Q.** And the repSSMD.LYZ.NS (ISC-enriched organoids [4]; Dose 0.02 uM)?
**A.** Its repSSMD.LYZ.NS is 0.231.

**Q.** And the Z.LYZ.NS (ISC-enriched organoids [4]; Dose 0.04 uM)?
**A.** The Z.LYZ.NS was 1.197.

**Q.** What about the repSSMD.LYZ.NS (ISC-enriched organoids [4]; Dose 0.04 uM) of the same compound?
**A.** The repSSMD.LYZ.NS was 1.267.

**Q.** And the Z.LYZ.NS (ISC-enriched organoids [4]; dose 0.08 uM)?
**A.** The Z.LYZ.NS was 0.462.

**Q.** What about the repSSMD.LYZ.NS (ISC-enriched organoids [4]; dose 0.08 uM) of the same compound?
**A.** Its repSSMD.LYZ.NS is 0.537.

**Q.** `COc1cc(Nc2c(C#N)cnc3cc(OCCCN4CCN(C)CC4)c(OC)cc23)c(Cl)cc1Cl` [Bosutinib (SKI-606), Bosutinib] was tested. Which Z.CTG (ISC-enriched organoids [1]; primary screen, dose 0.08 uM) did it give?
**A.** Its Z.CTG is 1.499.

**Q.** And the Z.CTG (ISC-enriched organoids [1]; primary screen, dose 0.40 uM)?
**A.** The Z.CTG was 0.720.

**Q.** And the Z.CTG (ISC-enriched organoids [1]; primary screen, dose 2.00 uM)?
**A.** Its Z.CTG is −0.405.

**Q.** What about the Z.CTG (ISC-enriched organoids [1]; primary screen, dose 10.00 uM) of the same compound?
**A.** The Z.CTG was −1.595.

**Q.** What about the repSSMD.LYZ.S (ISC-enriched organoids [2]; Dose 0.02 uM) of the same compound?
**A.** The repSSMD.LYZ.S was 1.147.

**Q.** What about the Z.LYZ.S (ISC-enriched organoids [2]; Dose 0.04 uM) of the same compound?
**A.** Its Z.LYZ.S is −0.663.

**Q.** And the repSSMD.LYZ.S (ISC-enriched organoids [2]; Dose 0.04 uM)?
**A.** Its repSSMD.LYZ.S is −0.977.

**Q.** What about the Z.LYZ.S (ISC-enriched organoids [2]; dose 0.08 uM) of the same compound?
**A.** The Z.LYZ.S was −0.554.

**Q.** What about the repSSMD.LYZ.S (ISC-enriched organoids [2]; dose 0.08 uM) of the same compound?
**A.** Its repSSMD.LYZ.S is −0.892.

**Q.** What about the Z.CTG (ISC-enriched organoids [3]; Dose 0.02 uM) of the same compound?
**A.** The Z.CTG was 1.944.

**Q.** What about the repSSMD.CTG (ISC-enriched organoids [3]; Dose 0.02 uM) of the same compound?
**A.** Its repSSMD.CTG is 1.251.

**Q.** And the Z.CTG (ISC-enriched organoids [3]; Dose 0.04 uM)?
**A.** Its Z.CTG is 1.254.

**Q.** What about the repSSMD.CTG (ISC-enriched organoids [3]; Dose 0.04 uM) of the same compound?
**A.** Its repSSMD.CTG is 0.876.

**Q.** And the Z.CTG (ISC-enriched organoids [3]; dose 0.08 uM)?
**A.** Its Z.CTG is 0.735.

**Q.** What about the repSSMD.CTG (ISC-enriched organoids [3]; dose 0.08 uM) of the same compound?
**A.** The repSSMD.CTG was 0.584.

**Q.** And the Z.LYZ.NS (ISC-enriched organoids [4]; Dose 0.02 uM)?
**A.** The Z.LYZ.NS was 1.061.

**Q.** And the repSSMD.LYZ.NS (ISC-enriched organoids [4]; Dose 0.02 uM)?
**A.** Its repSSMD.LYZ.NS is 1.620.

**Q.** And the Z.LYZ.NS (ISC-enriched organoids [4]; Dose 0.04 uM)?
**A.** Its Z.LYZ.NS is −0.535.

**Q.** And the repSSMD.LYZ.NS (ISC-enriched organoids [4]; Dose 0.04 uM)?
**A.** The repSSMD.LYZ.NS was −0.666.

**Q.** What about the Z.LYZ.NS (ISC-enriched organoids [4]; dose 0.08 uM) of the same compound?
**A.** Its Z.LYZ.NS is −0.562.

**Q.** And the repSSMD.LYZ.NS (ISC-enriched organoids [4]; dose 0.08 uM)?
**A.** The repSSMD.LYZ.NS was −0.903.
